Measured values: the supplement of paper PMC11061612

Legend:
Trametinib = compound: CC(=O)Nc1cccc(-n2c(=O)n(C3CC3)c(=O)c3c(Nc4ccc(I)cc4F)n(C)c(=O)c(C)c32)c1 [Trametinib]; conditions: max 1 µM
In short: (§1)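 Following 24 hours at 37°C and 5% CO2, cancer cell lines in 1536-well plates with 7.5 μl DMEM/F12 or RPMI and 10% FBS were dosed for 72 hours, final DMSO typically being 0.2%. CellTiter-Glo 2.0 luminescence, scaled between blank-well and DMSO-well means, gave the viability readout. Dose responses were fitted to a two-parameter logistic curve with a non-linear mixed effects model, and the single-agent IC50 was derived from this fit.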

AZD7648 = compound: Cc1cc2ncnn2cc1Nc1ncc2c(n1)n(C1CCOCC1)c(=O)n2C [AZD7648]; conditions: max 10 µM
In short: as §1

Alisertib = compound: COc1cc(Nc2ncc3c(n2)-c2ccc(Cl)cc2C(c2c(F)cccc2OC)=NC3)ccc1C(=O)O [Alisertib]; conditions: max 10 µM
In short: as §1

AZD5153 = compound: COc1nnc2ccc(N3CCC(c4ccc(OCCN5CCN(C)C(=O)[C@H]5C)cc4)CC3)nn12 [AZD5153]; conditions: max 1 µM
In short: as §1

Taselisib = compound: Cc1nc(-c2cn3c(n2)-c2ccc(-c4cnn(C(C)(C)C(N)=O)c4)cc2OCC3)n(C(C)C)n1 [Taselisib]; conditions: max 10 µM
In short: as §1

AZD6738 = compound: C[C@@H]1COCCN1C2=NC(=NC(=C2)C3(CC3)[S@](=N)(=O)C)C4=C5C=CNC5=NC=C4 [AZD6738]; conditions: max 10 µM
In short: as §1

Doxorubicin = compound: COc1cccc2c1C(=O)c1c(O)c3c(c(O)c1C2=O)C[C@@](O)(C(=O)CO)C[C@@H]3O[C@H]1C[C@H](N)[C@H](O)[C@H](C)O1 [Doxorubicin]; conditions: max 1 µM
In short: as §1

SG3199 = compound: CC1=CN2[C@@H](C1)C=NC3=CC(=C(C=C3C2=O)OC)OCCCCCOC4=C(C=C5C(=C4)N=C[C@@H]6CC(=CN6C5=O)C)OC [SG3199]; conditions: max 0.001 µM
In short: as §1

AZD1775 = compound: C=CCn1c(=O)c2cnc(Nc3ccc(N4CCN(C)CC4)cc3)nc2n1-c1cccc(C(C)(C)O)n1 [AZD1775]; conditions: max 3 µM
In short: as §1

SN-38 = compound: CCc1c2c(nc3ccc(O)cc13)-c1cc3c(c(=O)n1C2)COC(=O)[C@]3(O)CC [SN-38]; conditions: max 0.3 µM
In short: as §1

Selumetinib = compound: Cn1cnc2c(F)c(Nc3ccc(Br)cc3Cl)c(C(=O)NOCCO)cc21 [Selumetinib]; conditions: max 10 µM
In short: as §1

Lapatinib = compound: CS(=O)(=O)CCNCc1ccc(-c2ccc3ncnc(Nc4ccc(OCc5cccc(F)c5)c(Cl)c4)c3c2)o1 [Lapatinib]; conditions: max 10 µM
In short: as §1

Venetoclax = compound: CC1(C)CCC(CN2CCN(c3ccc(C(=O)NS(=O)(=O)c4ccc(NCC5CCOCC5)c([N+](=O)[O-])c4)c(Oc4cnc5[nH]ccc5c4)c3)CC2)=C(c2ccc(Cl)cc2)C1 [Venetoclax]; conditions: max 1 µM
In short: as §1

Prexasertib = compound: COc1cccc(OCCCN)c1-c1cc(Nc2cnc(C#N)cn2)n[nH]1 [Prexasertib]; conditions: max 1 µM
In short: as §1

Dasatinib = compound: CC1=C(C(=CC=C1)Cl)NC(=O)C2=CN=C(S2)NC3=CC(=NC(=N3)C)N4CCN(CC4)CCO [Dasatinib]; conditions: max 2 µM
In short: as §1

Savolitinib = compound: C[C@@H](c1ccc2nccn2c1)n1nnc2ncc(-c3cnn(C)c3)nc21 [Savolitinib]; conditions: max 1 µM
In short: as §1

AZD4320 = compound: CN(CC[C@H](CSC1=CC=CC=C1)NC2=C(C=C(C=C2)S(=O)(=O)NC(=O)C3=CC=C(C=C3)N4CCC(CC4)[C@H](C5=CC=CC=C5C6=CC=C(C=C6)Cl)O)S(=O)(=O)C(F)(F)F)CCO [AZD4320]; conditions: max 1 µM
In short: as §1

AZD2811 = compound: CCN(CCO)CCCOc1ccc2c(Nc3cc(CC(=O)Nc4cccc(F)c4)[nH]n3)ncnc2c1 [AZD2811]; conditions: max 1 µM
In short: as §1

Crizotinib = compound: C[C@@H](Oc1cc(-c2cnn(C3CCNCC3)c2)cnc1N)c1c(Cl)ccc(F)c1Cl [Crizotinib]; conditions: max 10 µM
In short: as §1

AZD1390 = compound: CC(C)n1c(=O)n(C)c2cnc3cc(F)c(-c4ccc(OCCCN5CCCCC5)nc4)cc3c21 [AZD1390]; conditions: max 0.3 µM
In short: as §1

Capivasertib = compound: C1CN(CCC1(C(=O)N[C@@H](CCO)C2=CC=C(C=C2)Cl)N)C3=NC=NC4=C3C=CN4 [Capivasertib]; conditions: max 10 µM
In short: as §1

Olaparib = compound: O=C(c1cc(Cc2n[nH]c(=O)c3ccccc23)ccc1F)N1CCN(C(=O)C2CC2)CC1 [Olaparib]; conditions: max 10 µM
In short: as §1

AZD5991 = compound: Cc1c2c(nn1C)CSCc1cc(n(C)n1)CSc1cc(c3ccccc3c1)OCCCc1c(C(=O)O)n(C)c3c-2c(Cl)ccc13 [AZD5991]; conditions: max 1 µM
In short: as §1

AZD8186 = compound: C[C@@H](Nc1cc(F)cc(F)c1)c1cc(C(=O)N(C)C)cc2c(=O)cc(N3CCOCC3)oc12 [AZD8186]; conditions: max 3 µM
In short: as §1

AZD0156 = compound: CN(C)CCCOc1ccc(-c2ccc3ncc4c(c3c2)n(C2CCOCC2)c(=O)n4C)cn1 [AZD0156]; conditions: max 3 µM
In short: as §1

Palbociclib = compound: CC(=O)c1c(C)c2cnc(Nc3ccc(N4CCNCC4)cn3)nc2n(C2CCCC2)c1=O [Palbociclib]; conditions: max 10 µM
In short: as §1

Gefitinib = compound: COc1cc2ncnc(Nc3ccc(F)c(Cl)c3)c2cc1OCCCN1CCOCC1 [Gefitinib]; conditions: max 10 µM
In short: as §1

Row | Cell Line | IC50, cell viability 72 h (Trametinib) [nM] | IC50, cell viability 72 h (AZD7648) [nM] | IC50, cell viability 72 h (Alisertib) [nM] | IC50, cell viability 72 h (AZD5153) [nM] | IC50, cell viability 72 h (Taselisib) [nM] | IC50, cell viability 72 h (AZD6738) [nM] | IC50, cell viability 72 h (Doxorubicin) [nM] | IC50, cell viability 72 h (SG3199) [nM] | IC50, cell viability 72 h (AZD1775) [nM] | IC50, cell viability 72 h (SN-38) [nM] | IC50, cell viability 72 h (Selumetinib) [nM] | IC50, cell viability 72 h (Lapatinib) [nM] | IC50, cell viability 72 h (Venetoclax) [nM] | IC50, cell viability 72 h (Prexasertib) [nM] | IC50, cell viability 72 h (Dasatinib) [nM] | IC50, cell viability 72 h (Savolitinib) [nM] | IC50, cell viability 72 h (AZD4320) [nM] | IC50, cell viability 72 h (AZD2811) [nM] | IC50, cell viability 72 h (Crizotinib) [nM] | IC50, cell viability 72 h (AZD1390) [nM] | IC50, cell viability 72 h (Capivasertib) [nM] | IC50, cell viability 72 h (Olaparib) [nM] | IC50, cell viability 72 h (AZD5991) [nM] | IC50, cell viability 72 h (AZD8186) [nM] | IC50, cell viability 72 h (AZD0156) [nM] | IC50, cell viability 72 h (Palbociclib) [nM] | IC50, cell viability 72 h (Gefitinib) [nM]
1 | RD (Rhabdomyosarcoma) | > 1000 | > 10000 | > 10000 | 951 | 2270 | > 10000 | > 1000 | > 1 | 1030 | > 300 | > 10000 | > 10000 | > 1000 | 465 | > 2000 | > 1000 | 706 | > 1000 | > 10000 | > 300 | > 10000 | > 10000 | > 1000 | > 3000 | > 3000 | > 10000 | > 10000
2 | RPMI-8226 (Plasma Cell Myeloma) | > 1000 | > 10000 | 1410 | 114 | > 10000 | 2020 | 599 | > 1 | 1600 | 59.6 | > 10000 | > 10000 | > 1000 | 30.5 | > 2000 | > 1000 | 150 | > 1000 | > 10000 | > 300 | > 10000 | > 10000 | 88.2 | > 3000 | > 3000 | 5790 | > 10000
3 | SK-GT-2 (Gastric Carcinoma) | > 1000 | > 10000 | > 10000 | > 1000 | 6640 | > 10000 | > 1000 | > 1 | 848 | > 300 | > 10000 | 1130 | > 1000 | 76.7 | > 2000 | > 1000 | > 1000 | > 1000 | > 10000 | > 300 | > 10000 | > 10000 | > 1000 | > 3000 | > 3000 | > 10000 | 4890
4 | SNU-398 (Hepatocellular Carcinoma) | 849 | > 10000 | 4320 | 941 | > 10000 | > 10000 | > 1000 | > 1 | 701 | > 300 | > 10000 | > 10000 | > 1000 | 777 | > 2000 | > 1000 | > 1000 | 801 | > 10000 | > 300 | > 10000 | > 10000 | 150 | > 3000 | > 3000 | > 10000 | > 10000
